Reference: ChEMBL document CHEMBL1201862, “PubChem BioAssay data set” (2004)
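Exposure lasted 48 hours, with cells grown in 96-well plates and compounds tested at five concentrations. GI50 is the concentration that inhibits growth by half.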 Active and inactive are the calls of the source. Rule as the data show it: active = GI50 up to about 1.1 µM and inactive = higher.

How the values were obtained:
Assay in all cases: NCI tumour cell line growth inhibition, 48 h
[1] = system: 786-0
[2] = system: A498
[3] = system: A549
[4] = system: EKVX
[5] = system: HCT-116
[6] = system: HL-60
[7] = system: HOP-92
[8] = system: LOX IMVI
[9] = system: M14
[10] = system: MDA-N
[11] = system: MOLT-4
[12] = system: OVCAR-4
[13] = system: PC-3
[14] = system: RPMI-8226
[15] = system: SF-268
[16] = system: SN12C
[17] = system: SNB-19
[18] = system: SR
[19] = system: SW-620
[20] = system: TK-10

Row | SMILES | GI50 [1] | GI50 [2] | GI50 [3] | GI50 [4] | GI50 [5] | GI50 [6] | GI50 [7] | GI50 [8] | GI50 [9] | GI50 [10] | GI50 [11] | GI50 [12] | GI50 [13] | GI50 [14] | GI50 [15] | GI50 [16] | GI50 [17] | GI50 [18] | GI50 [19] | GI50 [20]
1 | CCN(CC)C(=S)N/N=C(/c1ccccc1)c1ccccn1 | 0.145 µM (active) | 0.311 µM (active) | 0.349 µM (active) | 0.583 µM (active) | 0.0454 µM (active) | 0.264 µM (active) | 1.65 µM (inactive) | 0.2 µM (active) | 0.0618 µM (active) | 1.07 µM (active) | < 0.0507 µM (active) | 0.504 µM (active) | 0.212 µM (active) | 0.11 µM (active) | 0.0256 µM (active) | 0.214 µM (active) | 2.84 µM (inactive) | 0.106 µM (active) | 0.121 µM (active) | 0.439 µM (active)
2 | CC1CCCC2(CC[N+](C)(CCC[N+](C)(C)C)CC2)C1 (stereo not given) | > 100 µM (inactive) | > 100 µM (inactive) | > 100 µM (inactive) | > 100 µM (inactive) | > 100 µM (inactive) | 5.48 µM (inactive) | > 100 µM (inactive) | > 100 µM (inactive) | > 100 µM (inactive) | > 100 µM (inactive) | > 100 µM (inactive) | > 100 µM (inactive) | > 100 µM (inactive) | > 100 µM (inactive) | > 100 µM (inactive) | > 100 µM (inactive) | > 100 µM (inactive) | > 100 µM (inactive) | > 100 µM (inactive) | > 100 µM (inactive)
3 | C/C=C/[C@@H]1O[C@H](CC#C[Si](C)(C)C)[C@@]2(C=O)C(C)=CC[C@H](C(C)C)[C@@H]12 | 13.7 µM (inactive) | 29.6 µM (inactive) | 23.1 µM (inactive) | 18.8 µM (inactive) | 18.2 µM (inactive) | 3.81 µM (inactive) | 17.4 µM (inactive) | 4.5 µM (inactive) | 18.5 µM (inactive) | 19.4 µM (inactive) | 1.93 µM (inactive) | 19.3 µM (inactive) | 15.4 µM (inactive) | 5.7 µM (inactive) | 23.8 µM (inactive) | 17.7 µM (inactive) | 23.8 µM (inactive) | 2.44 µM (inactive) | 23.2 µM (inactive) | 15 µM (inactive)
4 | COc1cc(C2S/C(=C/c3ccccc3)C(=O)N2c2cc(Cl)c(Cl)cc2Cl)cc(OC)c1OC (stereo not given) | 38.3 µM (inactive) | 44.8 µM (inactive) | 35.6 µM (inactive) | 9.66 µM (inactive) | 23.5 µM (inactive) | 20.4 µM (inactive) | 13.7 µM (inactive) | 24.2 µM (inactive) | 37.5 µM (inactive) | 50.5 µM (inactive) | 25.2 µM (inactive) | 52.6 µM (inactive) | 26.8 µM (inactive) | 24.6 µM (inactive) | 29.6 µM (inactive) | > 59.8 µM (inactive) | > 63.1 µM (inactive) | 25.3 µM (inactive) | 47.6 µM (inactive) | > 69.3 µM (inactive)
5 | C=C1C(=O)O[C@@H]2C(=O)[C@@H](C)[C@@H]3C=CC(=O)[C@@]3(C)[C@@H](OC(=O)/C(C)=C\C)[C@H]12 [MULTISTATIN] | 0.31 µM (active) | 1.69 µM (inactive) | 10.6 µM (inactive) | 1.1 µM (active) | 0.238 µM (active) | 0.132 µM (active) | 0.393 µM (active) | 0.555 µM (active) | 1.56 µM (inactive) | 0.675 µM (active) | 0.41 µM (active) | 5.04 µM (inactive) | 2.29 µM (inactive) | 0.327 µM (active) | 1.69 µM (inactive) | 1.42 µM (inactive) | 12.9 µM (inactive) | 0.223 µM (active) | 0.361 µM (active) | 0.538 µM (active)
6 | O=C(c1ccccc1)c1ccc2[nH]c(-c3c(Cl)c(Cl)c(Cl)c(Cl)c3C(=O)Nc3ccco3)nc2c1 | 96.2 µM (inactive) | 20 µM (inactive) | 26.5 µM (inactive) | 67 µM (inactive) | 34 µM (inactive) | 24.2 µM (inactive) | 40.5 µM (inactive) | 38.1 µM (inactive) | 36.7 µM (inactive) | 15.3 µM (inactive) | 18.6 µM (inactive) | 42.3 µM (inactive) | 17.1 µM (inactive) | 19.8 µM (inactive) | 27 µM (inactive) | 48.2 µM (inactive) | 99.8 µM (inactive) | 12.6 µM (inactive) | 37.8 µM (inactive) | 39.7 µM (inactive)
7 | CCN(CC)Cc1cc(/N=N\c2c(O)ccc3c(/N=N\c4ccc(O)c(CN(CC)CC)c4)c(O)ccc23)ccc1O | 1.87 µM (inactive) | 13.3 µM (inactive) | 2.42 µM (inactive) | 4.56 µM (inactive) | 1.94 µM (inactive) | 1.8 µM (inactive) | 4.58 µM (inactive) | 1.59 µM (inactive) | 5.4 µM (inactive) | 4.8 µM (inactive) | 1.13 µM (inactive) | 1.77 µM (inactive) | 5.11 µM (inactive) | 1.68 µM (inactive) | 4.56 µM (inactive) | 3.92 µM (inactive) | 3.86 µM (inactive) | 0.993 µM (active) | 3.29 µM (inactive) | 6.89 µM (inactive)
